Data from patent US20070249717A1, “PREVENTIVE/THERAPEUTIC AGENT FOR VISCERAL PAIN” (AJINOMOTO CO. INC, priority 2004, published 2007).

Legend:
NK2 receptor = target: T1, NK2 receptor (Oryctolagus cuniculus, UniProt P79218); assay: Action on NK2 receptor: [βAla^8]NKA(4-10)-induced contraction of isolated rabbit pulmonary artery; type: cell-based
T1 construct: The pulmonary artery was isolated from a rabbit; from tissue; host or cells: isolated rabbit pulmonary artery
T1 sequence (P79218 1-384): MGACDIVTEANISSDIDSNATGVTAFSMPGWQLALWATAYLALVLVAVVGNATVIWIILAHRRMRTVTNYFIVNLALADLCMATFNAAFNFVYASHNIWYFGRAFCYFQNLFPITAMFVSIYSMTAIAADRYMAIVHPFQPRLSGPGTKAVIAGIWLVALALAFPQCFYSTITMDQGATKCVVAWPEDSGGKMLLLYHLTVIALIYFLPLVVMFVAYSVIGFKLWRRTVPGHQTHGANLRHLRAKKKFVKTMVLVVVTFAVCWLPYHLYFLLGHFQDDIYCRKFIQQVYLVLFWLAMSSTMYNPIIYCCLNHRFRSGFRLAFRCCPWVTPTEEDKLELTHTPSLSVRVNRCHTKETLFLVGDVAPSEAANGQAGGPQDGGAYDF
Experimental: A test for NK2 receptor was performed according to the method reported by Emonds et al. (Emonds-Alt X., Advenier, C., Croco, T. Manara, L., Neliat, G., Poncelet, M., Proietto, V., Santucci, V., Soubrie, P., Van Broeck, D., Vilain, P., Le Fur, G. and Breliere, J. C. (1993) SR 48968, a neurokinin A (NK2) receptor antagonist Regul. Peptides. 46: 31-36). The pulmonary artery was isolated from a rabbit. The isolated tissue was hung in a solution of buffer (NaCl 118.0, KCl 4.7, MgSO4 1-2, CaCl2 2.5, KH2PO41.2, NaHCO3 25, glucose 11.0 (pH 7 4) (unit:mM) 37° C.) aerated with oxygen (95% oxygen, 5% carbon dioxide), added with benexytramine (1 μM, a receptor antagonist), propranolol (1 μM, β receptor antagonist), pyrilamine (1 μM, histamine H1 receptor antagonist), atropine (1 μM, muscarinic receptor antagonist) and metiserglde (1 μM, 5-HT2 receptor antagonist). After 60 min or more, lysine (0.3, 3, 30 mM) was added to the buffer, and the contraction of the pulmonary artery due to [βAla^8]NKA(4-10) was measured.
In Table 2, the pulmonary artery contraction by [βAla^8]NKA(4-10) was calculated as 100%.

5-HT4 receptor = details: cited from earlier work
wrap stress rat model = details: in vivo; cited from earlier work
[1] = tested on: stress-induced colon distension rat model (visceral pain); assay: Visceral perceptual threshold in stress-induced colon distension visceral pain rat model; details: for visceral perceptual threshold that decreased due to the stress: stressed SD rat, from 10 min after administration, Dunnett's test
GABAB receptor = target: T2, GABAB receptor (Cavia porcellus, UniProt A0A286X9P6); assay: Action on GABAB receptor: electrically stimulated contraction of isolated guinea pig ileum; type: cell-based; details: for contraction (%): ileum contraction by electric stimulation calculated as 100%
T2 construct: The ileum was isolated from a guinea pig; from tissue; host or cells: isolated guinea pig ileum
Experimental: A test for GABAB receptor was performed according to the method reported by Kerr et al. (Kerr, D. I. B. Ong, J., Johnston, G. A. R. Abbenante, J. and Prager, R. H. (1988) 2-hydroxy-saclofen: an improved antagonist at central and peripheral GABAB receptors. Neurosci. Lett. 92: 92-96). The ileum was isolated from a guinea pig. […]
In Table 1, the ileum contraction by electric stimulation was calculated as 100%.

T2 sequence (A0A286X9P6 30-844): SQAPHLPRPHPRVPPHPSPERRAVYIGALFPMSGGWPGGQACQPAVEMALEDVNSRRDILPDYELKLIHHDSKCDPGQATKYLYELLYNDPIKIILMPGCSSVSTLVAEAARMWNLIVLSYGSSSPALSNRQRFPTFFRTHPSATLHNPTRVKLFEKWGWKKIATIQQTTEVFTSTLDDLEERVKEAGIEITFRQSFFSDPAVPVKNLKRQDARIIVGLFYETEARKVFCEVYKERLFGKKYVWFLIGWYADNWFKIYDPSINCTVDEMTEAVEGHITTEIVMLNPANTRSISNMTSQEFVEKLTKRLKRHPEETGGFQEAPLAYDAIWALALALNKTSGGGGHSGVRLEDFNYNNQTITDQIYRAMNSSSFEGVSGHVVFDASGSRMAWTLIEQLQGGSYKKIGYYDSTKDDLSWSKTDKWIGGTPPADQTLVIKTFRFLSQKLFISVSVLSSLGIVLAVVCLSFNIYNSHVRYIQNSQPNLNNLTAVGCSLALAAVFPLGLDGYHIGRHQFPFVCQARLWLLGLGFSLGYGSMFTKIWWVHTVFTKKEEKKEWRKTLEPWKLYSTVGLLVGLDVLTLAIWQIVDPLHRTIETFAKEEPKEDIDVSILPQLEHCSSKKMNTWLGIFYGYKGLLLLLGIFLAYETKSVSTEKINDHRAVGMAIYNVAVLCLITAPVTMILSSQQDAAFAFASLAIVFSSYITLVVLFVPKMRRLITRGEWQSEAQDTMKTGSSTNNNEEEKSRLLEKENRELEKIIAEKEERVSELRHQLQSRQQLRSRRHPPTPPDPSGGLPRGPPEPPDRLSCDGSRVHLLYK
T2 sequence (H0V741 1-820 partner): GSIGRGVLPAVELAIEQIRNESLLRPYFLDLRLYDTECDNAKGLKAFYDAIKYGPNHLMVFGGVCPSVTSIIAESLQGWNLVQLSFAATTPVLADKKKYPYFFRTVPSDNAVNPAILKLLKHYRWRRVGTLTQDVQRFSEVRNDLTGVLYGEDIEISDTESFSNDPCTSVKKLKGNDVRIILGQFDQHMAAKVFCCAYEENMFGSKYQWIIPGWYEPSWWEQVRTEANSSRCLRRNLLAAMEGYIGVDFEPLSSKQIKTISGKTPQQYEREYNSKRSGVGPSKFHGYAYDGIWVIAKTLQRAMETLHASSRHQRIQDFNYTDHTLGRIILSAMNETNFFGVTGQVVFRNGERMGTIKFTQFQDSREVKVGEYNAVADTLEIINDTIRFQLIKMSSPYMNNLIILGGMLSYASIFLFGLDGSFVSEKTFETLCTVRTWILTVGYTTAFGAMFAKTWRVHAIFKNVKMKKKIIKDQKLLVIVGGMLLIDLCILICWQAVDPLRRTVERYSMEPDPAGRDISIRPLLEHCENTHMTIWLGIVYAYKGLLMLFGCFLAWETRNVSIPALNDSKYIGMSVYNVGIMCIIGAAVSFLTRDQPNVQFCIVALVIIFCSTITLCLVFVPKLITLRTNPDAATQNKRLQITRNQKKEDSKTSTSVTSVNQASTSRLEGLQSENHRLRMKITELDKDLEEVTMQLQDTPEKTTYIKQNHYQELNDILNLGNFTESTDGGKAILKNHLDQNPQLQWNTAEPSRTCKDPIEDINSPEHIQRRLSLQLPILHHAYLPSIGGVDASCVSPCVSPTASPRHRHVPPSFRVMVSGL

| Compound | contraction (%) (NK2 receptor; 0.3 mM, contraction by [βAla^8]NKA(4-10) calculated as 100%) | contraction (%) (NK2 receptor; 3.0 mM, contraction by [βAla^8]NKA(4-10) calculated as 100%) | contraction (%) (NK2 receptor; 30 mM, contraction by [βAla^8]NKA(4-10) calculated as 100%) | pulmonary artery contraction via NK2 receptor (NK2 receptor; 0.3-30 mM, isolated rabbit pulmonary artery) | action at 5-HT4 receptor (5-HT4 receptor) | effect on wrap stress rat model (wrap stress rat model) | time for which significant increase of visceral perceptual threshold was observed ([1]; 1 g/kg or 3 g/kg orally) | visceral perceptual threshold that decreased due to the stress ([1]; 1 g/kg orally) | visceral perceptual threshold that decreased due to the stress ([1]; 3 g/kg orally) | contraction (%) (GABAB receptor; 0.3 mM) | contraction (%) (GABAB receptor; 3.0 mM) | contraction (%) (GABAB receptor; 30 mM) | ileum contraction via GABAB receptor (GABAB receptor; 0.3-30, isolated guinea pig ileum) | contraction (%) (NK2 receptor; 3 × 10^−4 mM, agonist alone, reference set as 100%) |
| --- | --- | --- | --- | --- | --- | --- | --- | --- | --- | --- | --- | --- | --- | --- |
| NCCCC[C@H](N)C(=O)O [lysine] | 85 | 41 | 19 | suppressed the pulmonary artery contraction via NK2 receptor, in a dose-dependent manner | 5-HT4 receptor antagonist | treatment effect | about 2 hr | significantly increased | significantly increased | 0 | −20 | −77 | suppressed the ileum contraction via GABAB receptor, in a dose-dependent manner |  |
| [βAla^8]NKA(4-10) [reference compound] |  |  |  |  |  |  |  |  |  |  |  |  |  | 100 |
